Entries after “also recorded” stand apart in the source; their conditions may differ.
Experiments:
[1] = system: EMG; details: s.c. or i.p. 300 μg in IFA, 7 days before or 7-18 days after first TAChR immunization; cited from earlier work
[2] = system: CD8+ depleted spleen cells; assay: Lymphocyte proliferation assay, CD8+ depleted spleen cells of IL-4 KO mice; assay type: cell-based, mouse
Method: Lymphocyte Proliferation Assay. Two weeks after the last immunization, spleen cells (Bellone et al., 1991) were obtained from three identically treated IL-4 KO mice. The cells were pooled and depleted them in CD8^+ cells using paramagnetic beads and rat anti-mouse CD8^+ antibody (Pharmingen, San Diego, Calif.). The cells were suspended in RPMI-1640 (Gibco, Grand Island, N.Y.) supplemented with 10% heat inactivated fetal calf serum (Gibco), 50 μM 2-mercaptoethanol, 1 mM L-glutamine, 10 mM Hepes, 1 mM sodium pyruvate, 100 U/ml penicillin and 100 μg/ml streptomycin (×10^6 cells/ml). The cells were seeded in triplicate in 96 flat-bottom well plates (200 μl/well). One of the following antigens or stimulants was added: 10 μg/ml phytohemoagglutinine (PHA) (Sigma); 10 μg/ml TAChR; the pools of overlapping peptides spanning the α, β, γ, or δ subunit sequences (5 μg/ml) of each peptide); and 10 μg/ml of the individual a subunit peptides. Controls were triplicate wells cultivated without any antigen, or with or a 20-residue control peptide synthesized by the same method, unrelated to the TAChR sequence (10 μg). After four days the cells were labeled for 16 hours with ^3H-thymidine (1 μCi per well, specific activity 6.7 Ci/mmol, Dupont, Boston, Mass.), and harvested (Titertek, Skatron, Sterling, Va.). The ^3H-thymidine incorporation was measured by liquid scintillation.

[3] = system: mice with EMG weakness; assay: Verification of myasthenic weakness with cholinesterase inhibitor in TAChR-immunized mice; assay type: in vivo, mouse; details: i.p.
Method: To verify the myasthenic nature of the weakness observed, mice with significant weakness were injected i.p. with the cholinesterase inhibitor edrophonium chloride (Reversol, Organon Inc., West Orange, N.J.). […] The test was performed blindly, i.e., without knowledge of the treatment that the mouse had received.
Evaluation of Clinical Symptoms of EMG. The symptoms of EMG were quantified using a forced exercise by the inverted hang technique, sensitized by a minute amount of pancuronium bromide (0.03 mg/kg intraperitoneum), given just before the test (Karachunski et al., 1995). The mice hang from a grid, and the time it took for the mouse to release its hold and fall three times is measured (“holding time”). […] This test is parametric, and gives a quantitative assessment of the severity of the mouse weakness. […]
Evaluation of the symptoms of EMG The EMG symptoms were quantified using a forced exercise test sensitized by i.p. injection of a minute amount of pancuronium bromide (0.03 mg/kg) just before the test (Karachunski et al., 1995). The mouse hangs from a grid suspended above a soft padding, and the time it takes the mouse to fall three times (‘holding time’) was measured. The test is parametric, and gives a quantitative assessment of the mouse weakness. […]

[4] = system: SCID mice engrafted with BL; assay: Verification of myasthenic weakness with cholinesterase inhibitor in SCID mice engrafted with BL from MG patients; assay type: in vivo, mouse
Method: Assay of myasthenic symptoms. The myasthenic symptoms were quantified using a forced exercise test sensitized by administration of a minute amount of pancuronium bromide (0.03 mg/kg intraperitoneum) just before the test. The small amount of pancuronium inactivates a fraction of the mouse muscle AChR. […] The mice hang from a grid suspended above a soft padding, and the time it took the mouse to fall three times (“holding time”) was measured. The test is parametric and gives a quantitative assessment of the mouse weakness. The mice were tested without knowledge of the type of cells engrafted.
The myasthenic nature of the weakness was verified by injecting intraperitoneum edrophonium chloride (Reversol; Organon Inc., West Orange, N.J.). […] The concentrations of human IgG and IgM in the mouse sera was measured by ELISA. Microtiter plates (Nunc, Roskilde, Denmark) were coated with goat anti-human IgG or IgM Ab (pierce, Rockford, Ill.) in 20 mM sodium carbonate buffer, pH 9.5 (coating buffer), and blocked any uncoated sites with 3% bovine serum albumin (BSA) in coating buffer. Mouse sera diluted serially in PBS was added, and incubated at 4° C. overnight. After four washings with PBS containing 1% Triton X-100, peroxidase conjugated anti-human IgG and IgM Ab (Sigma, St. Louis, Mo.) was added. […] The optical density of the plates was read at 490 nm in an ELISA reader. […]

Row | Molecule | effect on EMG [1] | recognition of individual peptide by cells from peptide-treated mice ([2]; IL-4 KO mice) | recognition of individual peptide by cells from sham-treated mice ([2]; IL-4 KO mice immunized with TAChR, 10 μg/ml peptide) | effect on strength of mice with weakness [3] | effect on muscle strength of mice with normal holding time ([4]; SCID mice) | effect on strength of affected mice ([4]; intraperitoneum, SCID mice engrafted with BL from MG patients)
1 | peptide Tα146-162: overlapping synthetic TAChR α subunit peptide that overlaps Tα150-169 (LGIWTYDGTKVSISPES; UniProt P02710 170-186, looked up, fragment) | prevented EMG | strongly | recognized strongly |  |  | 
2 | CC[N+](C)(C)c1cccc(O)c1 [Reversol, edrophonium chloride] |  |  |  | immediately improved the strength; also recorded: immediately increased the strength | did not increase the muscle strength | immediately improved the strength; also recorded: improvement of the muscle strength
